The values below come from publication PMC3587609, “A Novel Cell-Penetrating Peptide Derived from Human Eosinophil Cationic Protein” (PLoS ONE, 2013).

In data set [1] the test system is Beas-2B cells. In words: Confocal laser-scanning microscopy (CLSM) of FITC-peptide internalization. Type of data set: cell-based. The settings on record: 5 µM peptide, 37°C, 5 and 60 min. Here is the method: Figure 1 Internalization of ECP^32–41 and EDN^32–41. (A) Beas-2B cells were incubated with 1, 5, 10, or 20 µM FITC-ECP^32–41, FITC-EDN^32–41, or FITC at 37°C for 1 h. […] (B) Beas-2B cells were incubated with 5 µM FITC-ECP^32–41, FITC-EDN^32–41, or FITC at 37°C for 5, 10, 30, or 60 min. The cells were then treated as described in (A) and subjected to flow cytometry. The results in (A) and (B) are expressed as the mean ± standard deviation (S.D.), n = 3. (C) Beas-2B cells were incubated with 5 µM FITC-ECP^32–41, FITC-EDN^32–41, or FITC at 37°C for 5 or 60 min before CLSM. Nuclei were stained with Hoechst 34850. Scale bar: 20 µm.
Cells were cultured on coverslips (1.0×10^4/coverslip) in indicated medium. After 24 h, cell samples were each incubated at 37°C for 1 h with an FITC-peptide. The cells were then washed twice with PBS, fixed with 2% (w/v) paraformaldehyde and incubated, first in PBS for 15 min, then with 50 mM NH4Cl in PBS for 10 min, and finally permeabilised with 0.5% (v/v) Triton-X-100 at 25°C for 5 min. Nuclei were stained with Hoechst 33342 Fluorescent Stain, (Sigma-Aldrich) during the final 5 min of incubation. Cells were then washed twice with 0.05% Triton-X-100, once with PBS, and the coverslips were mounted in a Vectashield anti-fade mounting medium (Vector Labs). […]

Data set [2] concerns CHO-K1 cells. Briefly: Internalization into wild-type CHO cells (flow cytometry and CLSM). The data set is classed as cell-based, Chinese hamster. The settings on record: 5 µM FITC-ECP32–41, 37°C, 1 h. As to the method:
(§1) Figure 3 HS-dependent ECP^32–-41 internalization. […] (B) Samples of wild-type and mutant CHO cells were each incubated with 5 µM FITC-ECP^32–41 at 37°C for 1 h and then subjected to flow cytometry. (C) Samples of wild-type and mutant CHO cells were incubated with 5 µM FITC-ECP^32–41 at 37°C for 1 h., then washed twice with 1 ml PBS, and fixed for CLSM. Nuclei were stained with Hoechst 34850. Scale bar: 20 µm. (D) Beas-2B cells were treated with heparinase I, heparinase III, or chondroitinase ABC for 2 h prior to incubation with 5 µM FITC-ECP^32–41 at 37°C for 1 h. […] Untreated cells served as the controls. The fluorescence of cells treated with FITC-ECP^32–41 was set to 100%. […] (E) Beas-2B cells were treated with heparinase I, heparinase III, or chondroitinase ABC for 2 h. […] Untreated cells served as the control. The fluorescence of the untreated cells was set to 100%.
(§2) Cells (3.0×10^5/well) were added into six-well plates and cultured in the indicated medium. After 24 h, each FITC-peptide, dissolved in medium, was added into a well and the samples incubated for 1 h. Cells were then harvested, washed, and suspended in PBS. The fluorescent intensities of the cell samples were measured using a FACSCalibur flow cytometer (BD Biosciences, Franklin Lakes, NJ) and excitation and emission wavelengths of 488 nm and 515–545 nm respectively. […]

The test system of data set [3] is Beas-2B cells. Briefly: Internalization after heparinase / chondroitinase ABC depletion of GAGs. The data set is classed as cell-based. The conditions noted are these: 10 U/ml chondroitinase ABC, 37°C, 2 h, then 5 µM FITC-ECP32–41, 37°C, 1 h; flow cytometry; n = 3. Here is the method:
as §1, §2
For orientation: In flow cytometry, cells or beads pass a laser one at a time.

Data set [4] has as its system Beas-2B cells. Briefly: Cell viability assay (MTT). As to the method:
Beas-2B cells were grown in serum-free medium in the presence of ECP^32–41 at indicated concentrations for 24 h. (A) The cytotoxic effect of ECP^32–41 was measured by MTT assay. The cell viability of untreated cells was set to 100%. Cells treated with 0.1% Triton X-100 was used as a positive control. (B) The membrane disruption by ECP^32–41 was measured by LDH assay. LDH released from cells lysed with 0.1% Triton X-100 in medium was defined as 100% leakage and LDH released from untreated cells was set as 0% leakage.
Beas-2B cells were incubated with 10 µM eGFP or eGFP-ECP^32–41 at 37°C for 1 h. The cells were then washed with 500 µl PBS, trypsinized at 37°C for 15 min, suspended in 500 µl PBS, and subjected to flow cytometry. (B) Beas-2B cells were treated with the indicated concentrations of TAT^47–57, ECP^32–41, KLA, KLA-TAT^47–57 or KLA-ECP^32–41 at 37°C for 24 h, and their cytotoxic effects were determined by the MTT assay. Cytotoxic effects of (C) KLA-TAT^47–57 and (D) KLA-ECP^32–41, at the indicated concentrations, on Beas-2B, A549, Caco-2, and AGS cells were assessed by the MTT assay after incubation at 37°C for 24 h. The cell viability untreated cells was set to 100%. The result is expressed as the mean ± S.D., n = 3.
The effects of the peptides on cell viability were determined colourimetrically using 3-(4,5-dimethylthiazol-2-yl)-2,5-diphenyltetrazolium bromide (MTT) (US Biological). Cells (1.0×10^4/well) were seeded into the wells of 96-well plates and incubated overnight. Cell samples were then exposed to different concentrations of TAT^47–57, ECP^32–41, KLA, KLA-TAT^47–57 or KLA-ECP^32–41. After 24 h, 100 µl of 0.5 mg/ml MTT in medium was added into each well, and the cells were incubated at 37°C for 3 h. The incubation medium was removed, and the remaining purple crystal formazan was dissolved in dimethylsulphoxide. Cells treated with 0.1% Triton X-100 was used as a positive control for cell viability. A540 values were measured using a multiwall plate reader (Molecular Devices).

Consider NYRWRCKNQN [ECP^32–41], for which the “intracellular fluorescence by CLSM” value in data set [1] is listed as “clearly detected”. In addition, the “internalization monitored by CLSM” value in data set [2] is reported as “clearly observed for CHO-K1 cells”. In data set [3], the “effect of CS depletion (chondroitinase ABC) on internalization” value is “little effect”. Further, the “cell viability (MTT) at 100 µM” value in data set [4] is given as “neither peptide affected cell viability”.
